Legend:
[1] = molecular target: T1, human FAAH (Fatty Acid Amide Hydrolase) (Homo sapiens, UniProt O00519); experiment: FAAH whole cell assay on CHO cells expressing human FAAH (human WC), AAMCA fluorescent substrate; format: cell-based; conditions: human FAAH_CHO whole cell
T1 construct: The full length FAAH was subcloned into the mammalian expression vector, pcDEF.neo, using XbaI and EcoRI restriction sites; expressed in transfected cells
T1 sequence (O00519 1-579): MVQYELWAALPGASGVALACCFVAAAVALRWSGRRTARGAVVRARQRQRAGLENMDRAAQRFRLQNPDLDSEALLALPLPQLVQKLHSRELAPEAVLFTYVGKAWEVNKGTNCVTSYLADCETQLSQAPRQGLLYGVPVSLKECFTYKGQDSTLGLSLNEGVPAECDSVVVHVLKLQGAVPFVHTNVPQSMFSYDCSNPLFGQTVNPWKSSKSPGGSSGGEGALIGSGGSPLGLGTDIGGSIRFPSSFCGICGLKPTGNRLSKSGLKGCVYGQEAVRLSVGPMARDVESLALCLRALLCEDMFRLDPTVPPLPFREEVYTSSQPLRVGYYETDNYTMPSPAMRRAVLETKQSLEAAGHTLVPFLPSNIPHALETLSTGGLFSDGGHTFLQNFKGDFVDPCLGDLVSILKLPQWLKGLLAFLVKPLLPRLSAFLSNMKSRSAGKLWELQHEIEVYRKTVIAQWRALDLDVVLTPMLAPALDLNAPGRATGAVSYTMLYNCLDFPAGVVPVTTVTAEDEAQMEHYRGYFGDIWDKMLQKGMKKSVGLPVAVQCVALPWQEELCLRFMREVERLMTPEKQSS
Procedure, shortened: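 CHO cells stably expressing full-length human FAAH, harvested with enzyme-free dissociation and resuspended at 4×10^4 cells/assay (96-well) or 1×10^4 (384-well) in 50 mM phosphate pH 8.0, 1 mM EDTA, 200 mM KCl, 0.2% glycerol, 0.1% BSA.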

[2] = molecular target: T1, human FAAH (Fatty Acid Amide Hydrolase); experiment: FAAH enzyme assay on CHO cell lysate expressing human FAAH (human LY), AAMCA fluorescent substrate; format: biochemical; conditions: human FAAH_CHO cell lysate
Procedure, shortened: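 CHO cell lysate expressing full-length human FAAH, preincubated with compound 15 min at 22-25° C. in pH 8.0 phosphate buffer with 200 mM KCl and 0.1% fatty-acid-free BSA. 1 μM AAMCA final, 1-3 h at room temperature; 7-amino-4-methylcoumarin release read by fluorescence (Ex 360, Em 460 nm).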

| IC50 [1] | IC50 [2] | SMILES |
| --- | --- | --- |
| 28.5 nM | 7.43 nM | O=C(Nc1ccc2c(c1)OCCO2)c1[nH]c2ncccc2c1Sc1ccc(Cl)cc1 [Example C14] |
| 773 nM | 251 nM | CC1(C)CCC(NC(=O)c2[nH]c3ncccc3c2Sc2ccc(Cl)cc2)CC1 [Example C9] |
| 9.93 nM | 7.08 nM | Cn1c2ncccc2c(Sc2ccc(Cl)cc2)c1[C@H]1CC[C@H](O)CC1 [Example E34] |
| 16.6 nM | 6.51 nM | Cn1c(-c2ccc3c(c2)OCCO3)c(Sc2ccc(Cl)cc2)c2cccnc21 [Example E3, 3-[(4-chlorophenyl)sulfanyl]-2-(2,3-dihydro-1,4-benzodioxin-6-yl)-1-methyl-1H-pyrrolo[2,3-b]pyridine] |
| 23.4 nM | 9.7 nM | Cn1cccc2c(Sc3ccc(Cl)cc3)c(-c3ccc4c(c3)OCCO4)nc1-2 [Example E2, 3-[(4-chlorophenyl)sulfanyl]-2-(2,3-dihydro-1,4-benzodioxin-6-yl)-7-methyl-7H-pyrrolo[2,3-b]pyridine] |
| 1210 nM | 181 nM | Cn1cccc2c(Sc3ccc(Cl)cn3)c(C3=CCC(O)CC3)nc1-2 (stereo not shown) [Example E19] |
| 22.8 nM | 14.2 nM | O=C1CCC(c2[nH]c3ncccc3c2Sc2ccc(Cl)cc2)CC1 [Example D7, 4-{3-[(4-chlorophenyl)sulfanyl]-1H-pyrrolo[2,3-b]pyridin-2-yl}cyclohexanone] |
| 71.6 nM | 26.6 nM | Cn1cccc2c(Sc3ccc(Cl)cn3)c(-c3ccc4c(c3)OCO4)nc1-2 [Example E11] |
| 5890 nM | 695 nM | CC(C)C(O)c1[nH]c2ncccc2c1Sc1ccc(Cl)cc1 (stereo not shown) [Example J11] |

Further lines, the compound ahead of its results:

| SMILES | IC50 [1] | IC50 [2] |
| --- | --- | --- |
| COc1ccc(-c2[nH]c3ncccc3c2Sc2ccc(Cl)cc2)cc1OC [Example B9] | 3.83 nM | 1.43 nM |
| Clc1ccc(Sc2c(-c3ccc4c(c3)OCCO4)[nH]c3ncccc23)cc1 [Example B6, 3-[(4-chlorophenyl)sulfanyl]-2-(2,3-dihydro-1,4-benzodioxin-6-yl)-1H-pyrrolo[2,3-b]pyridine] | 11.8 nM | 4.42 nM |
| CC(=O)Nc1ccc(-c2[nH]c3ncccc3c2Sc2ccc(Cl)cc2)cc1 [Example A20] | 370 nM | 110 nM |
| CCNC(=O)C1CC=C(c2[nH]c3ncccc3c2Sc2ccc(Cl)cc2)CC1 (stereo not shown) [Example B48] | 29.1 nM | 9.5 nM |
| Clc1ccc(Sc2c(-c3cnn4c3CCC4)[nH]c3ncccc23)cc1 [Example B31] | 686 nM | 113 nM |
| Clc1ccc(Sc2c(-c3cccc4[nH]ccc34)[nH]c3ncccc23)cc1 [Example B10] | 20.7 nM | 3.88 nM |
| O=C(O)C1CC=C(c2[nH]c3ncccc3c2Sc2ccc(Cl)cc2)CC1 (stereo not shown) [Example B47] | 573 nM | 252 nM |
| Clc1ccc(Sc2c(-c3cccs3)[nH]c3ncccc23)cc1 [Example B33] | 8540 nM | 464 nM |
| Clc1ccc(Sc2c(C3=CCCCC3)[nH]c3ncccc23)cc1 [Example B40] | 68.4 nM | 15.9 nM |
| CC(C)(O)c1ccc(-c2[nH]c3ncccc3c2Sc2ccc(Cl)cc2)cc1 [Example A31] | 42 nM | 13.2 nM |
| Clc1ccc(Sc2c(C3=CCCC3)[nH]c3ncccc23)cc1 [Example B15] | 1110 nM | 107 nM |
| Cn1cc(-c2[nH]c3ncccc3c2Sc2ccc(Cl)cc2)cn1 [Example B20] | 4160 nM | 238 nM |
| CC(C)(O)/C=C/c1[nH]c2ncccc2c1Sc1ccc(Cl)cc1 [Example B34] | 1110 nM | 213 nM |
| CC(O)C/C=C/c1[nH]c2ncccc2c1Sc1ccc(Cl)cc1 (stereo not shown) [Example B38] | 352 nM | 22.5 nM |
| OC[C@H]1CC[C@@H](c2[nH]c3ncccc3c2Sc2ccc(Cl)cc2)CC1 [Example B51] | 73.9 nM | 14.6 nM |
| Cc1n[nH]c(C)c1-c1[nH]c2ncccc2c1Sc1ccc(Cl)cc1 [Example B19] | 364 nM | 65.6 nM |
| OC(c1ccc(-c2[nH]c3ncccc3c2Sc2ccc(Cl)cn2)cc1)C(F)(F)F (stereo not shown) [Example A25] | 147 nM | 37.6 nM |
| FC(F)Oc1ccc(-c2[nH]c3ncccc3c2Sc2ccc(Cl)cc2)cc1 [Example B45] | 15.7 nM | 3.28 nM |
| O=C1Cc2cc(-c3[nH]c4ncccc4c3Sc3ccc(Cl)cn3)ccc2N1 [Example A33] | 405 nM | 134 nM |
| COc1ccc(-c2[nH]c3ncccc3c2Sc2ccc(Cl)cn2)cn1 [Example A24] | 128 nM | 30.4 nM |

Reference: patent US20130059850A1, “AZA-INDOLE DERIVATIVES USEFUL AS MODULATORS OF FAAH” (MERCK SHARP & DOHME CORP., priority 2010, published 2013)
